{"source": "paper doi:10.1101/2025.06.19.660642", "about": "“Discovery of orally bioavailable Zika and West Nile Virus antiviral compounds targeting the NS2B-NS3 protease” (bioRxiv, 2025)", "key": {"ZIKV NS2B-NS3 protease": {"molecular_target": "T1, ZIKV NS2B-NS3 protease (Zika virus, UniProt A0A024B7W1)", "T1 construct": "directed at the co-expressed ZIKV NS2B-NS3 protease", "T1 sequence (A0A024B7W1 1503-1680)": "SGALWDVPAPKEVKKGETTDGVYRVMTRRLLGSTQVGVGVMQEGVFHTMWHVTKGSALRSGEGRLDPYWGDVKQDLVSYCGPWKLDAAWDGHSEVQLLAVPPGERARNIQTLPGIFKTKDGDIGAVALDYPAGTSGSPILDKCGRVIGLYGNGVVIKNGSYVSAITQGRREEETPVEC", "T1 sequence (A0A024B7W1 1425-1464)": "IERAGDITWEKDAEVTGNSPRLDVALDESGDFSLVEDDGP", "test": "ZIKV NS2B-NS3 protease biochemical FRET assay", "conditions": "ZIKV NS2B-NS3 Ki"}, "WNV NS2B-NS3 protease": {"molecular_target": "T2, WNV NS2B-NS3 protease (West Nile virus, UniProt P06935)", "T2 construct": "some activity against the WNV NS2B-NS3 protease", "T2 sequence (P06935 1424-1463)": "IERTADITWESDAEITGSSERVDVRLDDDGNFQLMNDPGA", "T2 sequence (P06935 1502-1679)": "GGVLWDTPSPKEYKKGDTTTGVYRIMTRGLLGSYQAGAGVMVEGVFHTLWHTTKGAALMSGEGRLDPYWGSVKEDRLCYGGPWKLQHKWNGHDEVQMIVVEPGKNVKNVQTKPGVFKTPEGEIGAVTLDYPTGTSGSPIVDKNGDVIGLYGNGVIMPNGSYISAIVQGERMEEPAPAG", "test": "WNV NS2B-NS3 protease biochemical inhibition"}, "ZIKV [1]": {"test_system": "ZIKV", "test": "ZIKV antiviral assay (virus-induced cytopathy) in Vero E6 cells with P-gp inhibitor", "assay_type": "cell-based", "conditions": "Zika virus", "protocol": "(§1) Figure 5. (A) Further characterization of ASAP-0027808. Papp was determined in MDR1-MDCK cells. Antiviral assays were performed in Vero E6 cells in a 7-day infection using 0.5 uM CP100356 as a P-gp inhibitor (see Supporting Information for more details). (B) The compound was successfully crystallized with ZIKV NS2B-NS3. ASAP-0016806 and ASAP-0027808 both appear to interact with the same residues (catalytic triad His51/Asp75/Ser135 colored yellow, other key residues Tyr161, NS2B Ser81, and NS2B Asp83 colored green). (C) Dose-dependent suppression of ZIKV-induced cytopathy in VeroE6 cells (n=2); no changes to cell viability of uninfected cells treated with the inhibitor was observed. Cells were co-treated with 0.5 μM CP100356 (as P-gp inhibitor). TEXT PRINTED IN THE PICTURE: (A) ASAP-0027808: ZIKV NS2B-NS3 Ki (μM): 0.090; ZIKV EC50 / CC50 (μM): 4.6 / >50; WNV NS2B-NS3 Ki (μM): 2.9; MW (g/mol): 313; CLint,app, HLM (μL/min/mg): < 10; MDR1-MDCK Papp A→B, B→A (10^-6 cm/sec): 2.0 ,11.0; Kinetic solubility (pH 7.4, μM): 279; LogD: 0.9"}, "[2]": {"test": "Cytotoxicity in uninfected Vero E6 cells", "assay_type": "cell-based", "conditions": "African green monkey; Vero cells + Pgpi, printed with WNV EC50; read-out: CC50 (WNV assay, Vero cells + Pgpi)", "protocol": "as §1"}, "Vero E6 cells": {"test_system": "Vero E6 cells", "test": "Cytotoxicity in uninfected Vero E6 cells", "assay_type": "cell-based", "conditions": "Vero E6 cells, 0.5 uM CP100356 as P-gp inhibitor", "protocol": "as §1"}, "ZIKV [3]": {"test_system": "ZIKV", "test": "ZIKV antiviral assay in SH-SY5Y cells", "assay_type": "cell-based", "conditions": "Zika virus"}, "WNV": {"test_system": "WNV", "test": "WNV antiviral assay in Vero cells with P-gp inhibitor", "assay_type": "cell-based", "conditions": "West Nile virus, read-out: WNV EC50 (Vero cells + Pgpi)"}, "MDR1-MDCK permeability": {"test": "MDR1-MDCK permeability", "assay_type": "in vitro ADME", "conditions": "dog", "protocol": "as §1"}, "[4]": {"test": "Murine in vivo pharmacokinetics and tolerability", "design": "species or system mice", "conditions": "mouse", "excerpt": "Figure 8. […] (B) ASAP-0036543 was assigned the (S) configuration by crystallography and the compound assumed a similar binding mode to that observed with ASAP-0029000. (C) Murine in vivo pharmacokinetics for ASAP-0036543. […] TEXT PRINTED IN THE PICTURE: (A) ASAP-0036543: ZIKV Ki (μM): 0.0029; ZIKV EC50 / EC90 / CC50 (μM, SH-SY5Y cells): 0.48 / 0.75 / 38; ZIKV EC50 / EC90 / CC50 (μM, Vero cells + pgpi): 0.38 / 0.98 / >50; WNV Ki (μM): 0.058; WNV EC50 / CC50 (μM, Vero cells + Pgpi): 1.0 / >50; %F (150, 300, 600 mpk): 96 / 153 / 223; Vd,ss (L/kg): 7.9; CLp (mL/min/kg): 87; CLint,app, HLM, MLM (μL/min/mg): < 10, <10; MDR1-MDCK Papp A→B, B→A (10^-6 cm/sec): 1.2, 16; KSol (pH 7.4, μM): 389; LogD: 1.0\nThe compound had high kinetic solubility, low microsomal clearance, and acceptable permeability in an MDR1-MDCK cell line. Respectable antiviral potency against WNV in Vero cells was also noted, which had been hitherto difficult to achieve with the chemotype. […] ASAP-0036543 was then advanced to murine pharmacokinetic studies to assess its potential as an in vivo tool compound.[31]"}, "Kinetic solubility": {"test": "Kinetic solubility", "conditions": "pH 7.4"}, "[5]": {"test": "Microsomal clearance, HLM", "conditions": "human, microsomes"}, "[6]": {"test": "Microsomal clearance, MLM", "conditions": "mouse, microsomes"}, "[7]": {"test": "Cytotoxicity in SH-SY5Y cells", "conditions": "human"}}, "note": "Where two headings read alike, the source gives them in different places.", "data": [{"smiles": "Cc1cc([C@H](Nc2ccc3c(c2)CNC3)C(=O)NCC(F)F)cc(C(F)(F)F)c1", "note": "[ASAP-0036543]", "values": [{"measurement": "Ki", "setting": "ZIKV NS2B-NS3 protease", "result": 0.0029, "unit": "µM"}, {"measurement": "Ki", "setting": "WNV NS2B-NS3 protease", "result": 0.058, "unit": "µM"}, {"measurement": "EC50", "setting": "ZIKV [1]; Vero C1008, 168 h, read-out: ZIKV EC50", "result": 0.38, "unit": "µM"}, {"measurement": "EC90", "setting": "ZIKV [1]; Vero, read-out: ZIKV EC90 (Vero cells + pgpi)", "result": 0.98, "unit": "µM"}, {"measurement": "CC50", "setting": "[2]", "result": "> 50", "unit": "µM"}, {"measurement": "CC50", "setting": "Vero E6 cells", "result": "> 50", "unit": "µM"}, {"measurement": "EC50", "setting": "ZIKV [3]; read-out: ZIKV EC50 (SH-SY5Y cells)", "result": 0.48, "unit": "µM"}, {"measurement": "EC90", "setting": "ZIKV [3]; read-out: ZIKV EC90 (SH-SY5Y cells)", "result": 0.75, "unit": "µM"}, {"measurement": "EC50", "setting": "WNV", "result": 1, "unit": "µM"}, {"measurement": "Papp A→B", "setting": "MDR1-MDCK permeability; MDCK-MDR1, A→B", "result": 1.2, "unit": "×10⁻⁶ cm/s"}, {"measurement": "Papp B→A", "setting": "MDR1-MDCK permeability; MDCK-MDR1, B→A", "result": 16, "unit": "×10⁻⁶ cm/s"}, {"measurement": "bioavailability", "setting": "[4]; in vivo, 150 mg/kg, PO 150 mpk, read-out: %F", "result": 96, "unit": "%"}, {"measurement": "bioavailability", "setting": "[4]; in vivo, 300 mg/kg, PO 300 mpk, read-out: %F", "result": 153, "unit": "%"}, {"measurement": "bioavailability", "setting": "[4]; in vivo, 600 mg/kg, PO 600 mpk, read-out: %F (oral bioavailability)", "result": 223, "unit": "%"}, {"measurement": "clearance", "setting": "[4]; in vivo, read-out: CLp", "result": 87, "unit": "mL/min/kg"}, {"measurement": "Vd", "setting": "[4]; in vivo, read-out: Vd,ss", "result": 7.9, "unit": "L/kg"}, {"measurement": "tolerability", "setting": "[4]; single PO doses of 150, 300 and 600 mg/kg", "result": "well-tolerated"}, {"measurement": "logD", "setting": "LogD", "result": 1}, {"measurement": "solubility kinetic", "setting": "Kinetic solubility", "result": 389, "unit": "µM"}, {"measurement": "microsomal CLint", "setting": "[5]", "result": "< 10", "unit": "µL/min/mg"}, {"measurement": "microsomal CLint", "setting": "[6]", "result": "< 10", "unit": "µL/min/mg"}, {"measurement": "CC50", "setting": "[7]", "result": 38, "unit": "µM"}]}]}
